We go through one molecule from article PMC9927571, “Antibacterial Activity of an FtsZ Inhibitor Celastrol and Its Synergistic Effect with Vancomycin against Enterococci In Vitro and In Vivo” (Microbiology Spectrum, 2023).

This assay concerns the target T1, FtsZ (Filamenting temperature-sensitive mutant Z) (Enterococcus faecalis, UniProt O08439).
T1 construct: recombinant E. faecalis FtsZ protein (FTZ04-B)
Nature of the assay: SPR (Biacore T200, FtsZ immobilized on CM5 chip); also GTPase inhibition of E. faecalis FtsZ, IC50 […]. In kind it is binding. (In SPR one partner is held on a chip, and binding of the other changes the refractive index at the surface.)

T1 sequence (O08439 whole entry, change not shown): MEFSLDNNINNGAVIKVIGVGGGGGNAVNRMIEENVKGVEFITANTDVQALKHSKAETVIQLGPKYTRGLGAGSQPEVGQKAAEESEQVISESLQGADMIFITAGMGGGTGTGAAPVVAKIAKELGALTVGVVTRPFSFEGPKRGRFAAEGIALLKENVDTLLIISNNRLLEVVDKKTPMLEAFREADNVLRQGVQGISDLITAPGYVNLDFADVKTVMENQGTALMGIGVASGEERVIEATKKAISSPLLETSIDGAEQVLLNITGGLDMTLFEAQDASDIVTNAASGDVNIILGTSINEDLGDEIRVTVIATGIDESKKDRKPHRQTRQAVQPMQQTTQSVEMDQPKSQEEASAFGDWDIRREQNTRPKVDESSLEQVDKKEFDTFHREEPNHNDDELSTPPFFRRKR

The term Kd denotes the equilibrium constant for the complex coming apart. A higher Kd goes with lower affinity. For `CC1=C(O)C(=O)C=C2C1=CC=C1[C@@]2(C)CC[C@@]2(C)[C@@H]3C[C@](C)(C(=O)O)CC[C@]3(C)CC[C@]12C` [CEL, celastrol], the affinity, expressed as Kd, was 2.45 µM. In other words, the single-digit micromolar range.
